From US12440473B2 (priority 2019, dated 2025)
Like-named read-outs stand apart in the source and are kept apart here.

Key:
full length human PPAR-α = molecular target: T1, full length human PPAR-α (Homo sapiens, UniProt Q07869); test: PathHunter NHR Protein Interaction assay, PPAR-α agonist activity (CHO cells); type: cell-based; details: for EC50: Table 5, read-out: Cell-Based PPAR Agonist Activity Half Maximal Effective Concentration (EC50) PPAR-α; for PPAR-α EC50 % improvement over FFA form: compared to free fatty acid form; for PPAR-α agonist maximum activity: text of Example 3; for Emax: CHO, PPAR-alpha, free fatty acid form, normalized to control compound (GW7647), read-out: Maximum Response
T1 construct: host or cells: Chinese hamster ovary (CHO) cell lines
T1 sequence (Q07869 1-468): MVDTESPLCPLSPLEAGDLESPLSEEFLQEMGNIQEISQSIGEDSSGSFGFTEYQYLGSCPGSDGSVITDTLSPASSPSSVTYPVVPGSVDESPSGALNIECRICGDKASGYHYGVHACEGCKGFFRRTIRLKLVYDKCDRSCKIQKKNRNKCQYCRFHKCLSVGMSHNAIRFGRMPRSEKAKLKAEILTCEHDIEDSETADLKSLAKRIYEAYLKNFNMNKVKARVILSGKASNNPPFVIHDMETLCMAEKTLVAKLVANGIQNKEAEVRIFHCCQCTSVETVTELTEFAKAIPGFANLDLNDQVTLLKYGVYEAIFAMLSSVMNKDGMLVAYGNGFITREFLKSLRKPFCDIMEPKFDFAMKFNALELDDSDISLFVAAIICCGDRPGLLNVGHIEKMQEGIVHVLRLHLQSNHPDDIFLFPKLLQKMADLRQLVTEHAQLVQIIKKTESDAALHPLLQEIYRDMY
Method: (§1) PPAR-α, PPAR-δ, and PPAR-γ agonist activities were measured using PathHunter Nuclear Hormone Receptor (NHR) Protein Interaction (Pro) assays (DiscoverX, Freemont, California). Briefly, Chinese hamster ovary (CHO) cell lines were used to monitor the activation of PPAR-α, PPAR-δ, and PPAR-γ in a homogenous, non-imaging assay format using Enzyme Fragment Complementation (EFC). The NHR Pro assay was based on detection of protein-protein interactions between activated, full length PPAR-α, PPAR-δ, and PPAR-γ proteins and a nuclear fusion protein containing Steroid Receptor Co-activator Peptide (SRCP) domains with one or more canonical LXXLL interaction motifs. PPAR-α, PPAR-δ, and PPAR-γ were tagged with the ProLink component of the EFC assay system, and the SRCP domain was fused to the enzyme acceptor component (EA) expressed in the nucleus. When bound by ligand, PPAR-α, PPAR-δ, or PPAR-γ migrated to the nucleus and recruited the SRCP domain, whereby complementation occurred, generating a unit of active β-Galactosidase (β-Gal) and production of chemiluminescent signal. […] Percentage activity was calculated using the following formula: % Activity=100%×(mean RLU of test sample−mean RLU of vehicle control)/(mean MAX control ligand−mean RLU of vehicle control).

full length human PPAR-δ = molecular target: T2, full length human PPAR-δ (Homo sapiens, UniProt Q03181); test: PathHunter NHR Protein Interaction assay, PPAR-δ agonist activity (CHO cells); type: cell-based; details: for PPAR-δ EC50 % improvement over FFA form: compared to free fatty acid form; for Emax: CHO, free fatty acid form, normalized to control compound (L-165,041), read-out: Maximum Response
T2 construct: host or cells: Chinese hamster ovary (CHO) cell lines
T2 sequence (Q03181 1-441): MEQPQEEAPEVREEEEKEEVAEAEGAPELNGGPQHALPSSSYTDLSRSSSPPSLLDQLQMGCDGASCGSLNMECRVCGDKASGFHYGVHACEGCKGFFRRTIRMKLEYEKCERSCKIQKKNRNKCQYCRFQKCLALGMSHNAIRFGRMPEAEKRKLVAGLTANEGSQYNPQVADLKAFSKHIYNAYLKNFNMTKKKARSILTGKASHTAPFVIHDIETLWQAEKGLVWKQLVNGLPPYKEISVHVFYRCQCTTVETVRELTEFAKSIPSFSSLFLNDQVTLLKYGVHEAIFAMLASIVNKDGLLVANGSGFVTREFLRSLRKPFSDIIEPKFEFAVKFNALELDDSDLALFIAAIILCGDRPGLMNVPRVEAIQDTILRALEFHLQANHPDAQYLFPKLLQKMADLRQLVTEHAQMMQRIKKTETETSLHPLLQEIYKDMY
Method: as §1

full length human PPAR-γ = molecular target: T3, full length human PPAR-γ (Homo sapiens, UniProt P37231); test: PathHunter NHR Protein Interaction assay, PPAR-γ agonist activity (CHO cells); type: cell-based; details: for Emax: CHO, PPAR-gamma, free fatty acid form, normalized to control compound (Troglitazone), read-out: Maximum Response
T3 construct: host or cells: Chinese hamster ovary (CHO) cell lines
T3 sequence (P37231 1-505): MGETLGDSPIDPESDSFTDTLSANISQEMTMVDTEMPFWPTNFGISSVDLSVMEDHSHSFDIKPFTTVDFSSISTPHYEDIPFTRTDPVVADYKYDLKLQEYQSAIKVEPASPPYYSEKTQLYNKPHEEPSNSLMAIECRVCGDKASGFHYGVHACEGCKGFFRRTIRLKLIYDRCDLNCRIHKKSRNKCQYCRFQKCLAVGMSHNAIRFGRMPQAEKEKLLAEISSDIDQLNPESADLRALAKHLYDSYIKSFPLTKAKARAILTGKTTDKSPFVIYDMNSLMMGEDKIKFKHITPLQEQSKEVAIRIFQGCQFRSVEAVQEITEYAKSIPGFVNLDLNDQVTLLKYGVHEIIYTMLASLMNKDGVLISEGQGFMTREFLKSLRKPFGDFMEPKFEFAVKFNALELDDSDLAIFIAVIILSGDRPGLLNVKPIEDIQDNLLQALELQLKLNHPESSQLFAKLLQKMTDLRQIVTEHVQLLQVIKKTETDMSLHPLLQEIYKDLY
Method: as §1

CB1 receptor [1] = molecular target: T4, CB1 receptor (Homo sapiens, UniProt P21554); details: for CB1-agonist maximum activity: positive control CP 55940 assigned 100% activity
T4 sequence (P21554 whole entry): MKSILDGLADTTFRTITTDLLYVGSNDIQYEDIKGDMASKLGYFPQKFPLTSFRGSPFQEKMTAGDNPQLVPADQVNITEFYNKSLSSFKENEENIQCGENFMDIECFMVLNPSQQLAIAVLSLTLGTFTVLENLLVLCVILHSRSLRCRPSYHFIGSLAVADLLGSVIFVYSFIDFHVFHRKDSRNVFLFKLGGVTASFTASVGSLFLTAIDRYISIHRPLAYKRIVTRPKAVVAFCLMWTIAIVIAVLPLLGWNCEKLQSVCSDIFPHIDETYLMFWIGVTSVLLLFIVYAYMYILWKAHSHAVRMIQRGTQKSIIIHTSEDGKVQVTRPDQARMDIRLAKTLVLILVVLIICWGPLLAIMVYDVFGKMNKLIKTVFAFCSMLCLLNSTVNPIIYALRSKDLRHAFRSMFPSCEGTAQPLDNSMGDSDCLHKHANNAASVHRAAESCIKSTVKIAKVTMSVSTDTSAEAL
From the text: (§2) Briefly, a variety of standardized and optimized functional assays were used to assess and compare the selected compounds' pharmacologic targets, including G protein-coupled receptors (ADORA2A, ADRA1A, ADRA2A, ADRB1, ADRB2, CB1, CB2, CCK1, D1, D2S, ETA, H1, H2, M1 M2, M3, OPRD1, OPRK1, OPRM1, 5HTR1A, 5HTR1B, 5HTR2A, 5HTR2B, AVPR1A), kinases (LCK, INSR, VEGFR2, ROCK1), transporters (DAT, NET, SERT), ion channels (GABAA, 5-HT3, CA1.2, HERG, KVLQT1/MINK, NA1.5, NMDAR1/2B, NACHR), nuclear receptors (AR, GR), and non-kinase enzymes (COX1, COX2, ACHE, MAO-A, PDE3A, PDE4D2). […] Maximum activity (%) was also determined based on comparisons with internal positive controls, which were assigned 100% activity.

OPRM1 = OPRM1 (Homo sapiens, UniProt P35372)
Chain of OPRM1 (P35372 whole entry): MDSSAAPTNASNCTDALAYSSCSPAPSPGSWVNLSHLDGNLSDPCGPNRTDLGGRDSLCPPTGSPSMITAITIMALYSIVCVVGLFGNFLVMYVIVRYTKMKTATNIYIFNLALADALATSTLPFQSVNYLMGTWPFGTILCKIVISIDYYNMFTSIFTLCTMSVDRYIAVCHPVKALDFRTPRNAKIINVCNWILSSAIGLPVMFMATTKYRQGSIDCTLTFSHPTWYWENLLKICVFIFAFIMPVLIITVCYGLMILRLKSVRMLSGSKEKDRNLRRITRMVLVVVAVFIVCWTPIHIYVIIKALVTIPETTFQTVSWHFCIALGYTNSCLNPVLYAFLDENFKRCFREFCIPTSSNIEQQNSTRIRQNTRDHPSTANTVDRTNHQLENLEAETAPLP
From the text: as §2

CB1 receptor [2] = molecular target: T4, CB1 receptor; test: cell-based
From the text: as §2

[3] = test system: G protein-coupled receptors, kinases, transporters, ion channels, nuclear receptors, non-kinase enzymes; test: SAFETYscan E/IC50 ELECT panel, agonist and antagonist activities across 78 assays
From the text: as §2

cannabinoid receptor 1 = cannabinoid receptor 1 (Homo sapiens, UniProt P21554); test: Cannabinoid receptor 1 agonist activity (Example 4); details: for % maximum activity compared to positive control (CP55940): cannabinoid receptor 1 agonist (Table 6)
Chain of cannabinoid receptor 1 (P21554 whole entry, species assumed): as the sequence (P21554 whole entry) above

diet-induced obese mice = test: Diet-induced obese mice on high fat diet, daily oral gavage for 12 weeks; details: for Cholesterol / Glucose: Results (Day 84), 6 h fasted samples
Method: Forty C57BL/6J mice were fed a high fat diet (HFD) (D12492, 60% kcals fat) for 8 weeks. Study mice were then divided into the following four groups of ten: vehicle controls, low dose C17:0-treated (5 mg/kg body weight), high-dose C17:0-treated (50 mg/kg body weight), and low-dose C15:0-treated (5 mg/kg body weight).
“Results” values are based on 6 h fasted samples.

For `CCCCCCCCCCCCCCc1nnn[nH]1` [1-tetrazole-C15:0], the EC50 (full length human PPAR-α) was 2600 nM, the “PPAR-α EC50 % improvement over FFA form” value (full length human PPAR-α) was 77% and the “PPAR-α agonist maximum activity” value (full length human PPAR-α) was 32%. For the same compound, the EC50 (full length human PPAR-δ; Table 5, read-out: Cell-Based PPAR Agonist Activity Half Maximal Effective Concentration (EC50) PPAR-δ) was 500 nM, the “PPAR-δ EC50 % improvement over FFA form” value (full length human PPAR-δ) was 81% and the “PPAR-δ agonist maximum activity” value (full length human PPAR-δ; text of Example 3) was 18%. For the same compound, the EC50 (full length human PPAR-γ; Table 5, read-out: Cell-Based PPAR Agonist Activity Half Maximal Effective Concentration (EC50) PPAR-γ) was > 100000 nM, the CB1-agonist maximum activity (CB1 receptor [1]) was 48.3% and the IC50 (CB1 receptor [1]; read-out: CB1-agonist activity IC50, ten-point concentration curves) was 1300 nM. The “OPRM1 antagonist maximum activity” value (OPRM1) was 46.2% and the IC50 (OPRM1; read-out: OPRM1 antagonist IC50, ten-point concentration curves) was 3900 nM.

`CCCCCCCCCCCCCC(CC)C(=O)O` (centres unmarked) [2-ethyl-C15:0, 2-ethylpentadecanoic acid] was tested, and the “PPAR-α EC50 % improvement over FFA form” value (full length human PPAR-α) was 90%, the “PPAR-α agonist maximum activity” value (full length human PPAR-α) was 170% and the “PPAR-δ EC50 % improvement over FFA form” value (full length human PPAR-δ) was 89%. For the same compound, the “PPAR-δ agonist maximum activity” value (full length human PPAR-δ; text of Example 3) was 72.4%, the EC50 (full length human PPAR-δ; text of Example 3, read-out: PPAR-δ agonist EC50) was 28 nM and the “PPAR-γ EC50 % improvement over FFA form” value (full length human PPAR-γ; compared to free fatty acid form) was >49%. The PPAR-γ agonist activity (full length human PPAR-γ; in words) was “acquired PPAR-γ agonist activity”, the CB1-agonist maximum activity (CB1 receptor [1]) was 53.7% and the EC50 (CB1 receptor [2]) was 27 nM.

With `CCCCCCCCCCCCCC(C)C(=O)O` (centres unmarked) [2-methyl-C15:0, 2-methylpentadecanoic acid] the “additional activity across 78 assays” value [3] was “no additional activity was detected”.

`CCCCCCCCCCCCOCC(=O)O` [3-oxa-C15:0, 2-(dodecyloxy)acetic acid] was tested, and the EC50 (cannabinoid receptor 1) was 570 nM and the “% maximum activity compared to positive control (CP55940)” value (cannabinoid receptor 1) was 83%.

`CCCCCCCCCCCCCC(=O)O` [C14:0, myristic acid, reference compound] gave an Emax (full length human PPAR-α) of 74.1%, an EC50 (full length human PPAR-α) of 8400 nM and an Emax (full length human PPAR-γ) of 19%.

`CCCCCCCCCCCCCCC(=O)O` [C15:0, pentadecanoic acid] showed an Emax (full length human PPAR-α) of 65.8%, an Emax (full length human PPAR-δ; PPAR-delta) of 52.8% and an Emax (full length human PPAR-γ) of 7%. The “metabolic syndrome (glucose, insulin, cholesterol, proinflammatory cytokines) compared to controls” value (diet-induced obese mice; 5 mg/kg, vs vehicle control group) was “attenuated metabolic syndrome”, the Cholesterol (diet-induced obese mice; 5 mg/kg daily oral) was 183 ± 25 mg/dL and the Glucose (diet-induced obese mice; 5 mg/kg daily oral) was 245 ± 37 mg/dL. The “additional activity across 78 assays” value [3] was “no additional activity was detected”.

Work on `CCCCCCCCCCCCCCCC(=O)O` [C16:0, palmitic acid, reference compound] yielded an Emax (full length human PPAR-α) of 56.1% and an Emax (full length human PPAR-γ) of 4.7%.

`CCCCCCCCCCCCCCCCC(=O)O` [C17:0, heptadecanoic acid] gave an Emax (full length human PPAR-α) of 16.7%, an Emax (full length human PPAR-δ; PPAR-delta) of 39.8% and an EC50 (full length human PPAR-δ; PPAR-delta, free fatty acid form (Table 4), read-out: EC50) of 17400 nM. The Emax (full length human PPAR-γ) was 1%, the “metabolic syndrome compared to controls” value (diet-induced obese mice; C17:0 5 and 50 mg/kg, vs vehicle control group) was “trended toward attenuated metabolic syndrome” and the Cholesterol (diet-induced obese mice; 5 mg/kg daily oral) was 197 ± 31 mg/dL. For the same compound, the Glucose (diet-induced obese mice; 5 mg/kg daily oral) was 296 ± 23 mg/dL, the Cholesterol (diet-induced obese mice; 50 mg/kg daily oral) was 187 ± 44 mg/dL and the Glucose (diet-induced obese mice; 50 mg/kg daily oral) was 282 ± 31 mg/dL. The “proinflammatory cytokines and chemokines (TNF-α and MCP-1) compared to controls” value (diet-induced obese mice; high-dose 50 mg/kg, vs vehicle control group) was “significantly lower”.

In the case of `CCCCCCCCCCCCCC(CC)(CC)C(=O)O` [diethyl-C15:0], the EC50 (cannabinoid receptor 1) is reported as 3300 nM and the “% maximum activity compared to positive control (CP55940)” value (cannabinoid receptor 1) is reported as 93%.
